Data as given in article PMC8802628, “Selective activation of PFKL suppresses the phagocytic oxidative burst” (Cell, 2021).
Blank lines part the entries; values can stand above or below the molecule they belong to.

Key:
[1] = biological target: T1, PFKL (Homo sapiens, UniProt P17858); test: Thermal inactivation assay of PFKL; assay type: biochemical; conditions: 35°C; 200 μM FBP, 200 nM NA-11
T1 construct: made in house; host or cells: Sf9 insect cells (baculovirus, Bac-to-Bac)
T1 sequence (P17858 1-780): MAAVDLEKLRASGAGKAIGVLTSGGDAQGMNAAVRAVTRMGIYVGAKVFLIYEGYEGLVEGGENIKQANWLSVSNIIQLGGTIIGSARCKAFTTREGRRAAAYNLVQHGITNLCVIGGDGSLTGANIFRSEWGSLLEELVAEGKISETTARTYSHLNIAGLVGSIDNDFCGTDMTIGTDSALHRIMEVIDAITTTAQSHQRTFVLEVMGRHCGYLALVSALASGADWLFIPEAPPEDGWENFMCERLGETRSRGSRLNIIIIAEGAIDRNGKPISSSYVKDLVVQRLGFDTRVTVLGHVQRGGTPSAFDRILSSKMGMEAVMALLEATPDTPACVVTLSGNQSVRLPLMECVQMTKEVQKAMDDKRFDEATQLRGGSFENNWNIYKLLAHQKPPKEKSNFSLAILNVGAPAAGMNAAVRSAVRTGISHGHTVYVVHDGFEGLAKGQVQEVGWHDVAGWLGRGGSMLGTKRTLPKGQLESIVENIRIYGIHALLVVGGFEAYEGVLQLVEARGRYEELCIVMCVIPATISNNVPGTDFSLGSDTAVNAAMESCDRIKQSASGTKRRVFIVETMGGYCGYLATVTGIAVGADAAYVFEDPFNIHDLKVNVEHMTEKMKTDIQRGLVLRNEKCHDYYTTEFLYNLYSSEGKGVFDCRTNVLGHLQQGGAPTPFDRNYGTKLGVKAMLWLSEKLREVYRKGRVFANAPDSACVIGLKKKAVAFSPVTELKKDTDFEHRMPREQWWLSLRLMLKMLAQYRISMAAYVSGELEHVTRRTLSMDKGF
Experimental: Thermal inactivation assays were performed as previously described for PFKP, with modifications to account for the decreased stability of PFKL ([Sánchez-Martínez et al., 2000]). PFKL was diluted to 10 ng/mL, with a final buffer composition of 53.3 mM HEPES, 100 mM KCl, 0.167 mM DTT, 83.3 μM ammonium sulfate, 0.83% glycerol, 0.170 mM ATP, and 16.7 mM EDTA. Samples were incubated at 35°C. At the times indicated, samples were removed and residual PFK1 activity measured using the PK/LDH auxiliary enzyme assay described above with 125 μM ATP and 5 mM F6P. To determine if small molecule ligands altered PFKL stability, 200 μM FBP and 200 nM NA-11 were added.

[2] = biological target: T1, PFKL; test: Recombinant PFKL activity assay (relief of ATP inhibition); assay type: biochemical; conditions: 3.1 mM ATP
Source text: Recombinant N-terminal His-tagged human PFKL (NP_002617), PFKM (NP_000280), and PFKP (NM_002627.4) were generated as described ([Webb et al., 2015], [2017]). Point mutants of PFK1 were generated using the QuikChange Lightning kit (Aligent).
His-tagged PFK1 was expressed and purified as described with slight modifications ([Webb et al., 2015], [2017]). Briefly, baculovirus was generated using the Bac-to-Bac Expression system (Invitrogen). PFK1 was expressed in 2-5 × 10^6 sf9 cells at a multiplicity of infection of two for 48 h. Cells were lysed in 20 mM HEPES, pH 7.5, 80 mM potassium phosphate, 1 mM 2-mercapentoethanol, 10% glycerol, 10 mM imidazole, and EDTA-free Protease Inhibitor Cocktail (Abcam) with a Dounce homogenizer. The soluble lysate was incubated with HisPur cobalt resin (ThermoFisher Scientific). The resin was washed with 5 bead volumes lysis buffer, 10 bead volumes lysis buffer containing 2 M NaCl, and 5 further bead volumes lysis buffer. PFK1 was eluted in lysis buffer containing 100 mM imidazole. Fractions containing protein were pooled, passed over a desalting column equilibrated in freezing buffer [20 mM HEPES pH 7.5, 1 mM DTT, 500 μM ammonium sulfate, 5% glycerol, 1 mM ATP, and 100 μM EDTA] and concentrated using an Amicon Ultracel-30K Centrifugal Filter Unit (MilliporeSigma). Protein was quantified using a Bradford Protein Assay kit (ThermoFisher Scientific), and aliquotes frozen in liquid nitrogen for storage at −80°C.
PFK1 activity was determined using the rate of FBP production via an auxiliary enzyme assay adapted to a 96-well format ([Brüser et al., 2012]; [Webb et al., 2015]). The auxiliary enzymes aldolase, triosephosphate isomerase, and glycerol phosphate dehydrogenase were purchased from MilliporeSigma as ammonium sulfate slurries and desalted using an Amicon Ultracel-10K Centrifugal Filter Unit. For assays containing FBP, the rate of ADP production was determined using the auxiliary enzymes pyruvate kinase (PK) and lactate dehydrogenase (LDH) (MilliporeSigma) in a buffer containing 250 μM phosphoenolpyruvic acid, […] NADH, 50 mM HEPES pH 7.5, 100 mM KCl, 1 mM DTT, and effector concentrations as described in the text. The temperature was equilibrated to 25°C for 5 min before initiating the reaction 10 mM MgCl2. Absorbance at 340 nm was measured using a Varioskan LUX Multimode microplate reader (ThermoFisher). Kinetic parameters were generated by nonlinear regression analysis using Prism (GraphPad Software) and are the mean of a minimum of three measurements from two independent preparations of protein. One unit of activity was defined as the amount of enzyme that catalyzed the formation of 1 μmol of fructose 1,6-bisphosphate per min at 25°C. Assays for PFKM were performed at pH 7.0 due to the pH-dependence of ATP inhibition ([Trivedi and Danforth, 1966]).

[3] = tested on: human peripheral blood neutrophils; test: NETosis assay in human neutrophils (SYTOX Green, DNA area); assay type: cell-based; conditions: PMA; SAR analogs compared to LDC7559
Experimental: Freshly purified neutrophils were plated at 6 × 10^3 cells/well in glass bottom 96-well plates (SensoPlate, Greiner Bio-One 82050-792) in the RPMI medium described above. Cells were pretreated with DMSO vehicle, 0.5 μM NA-11, 100 μM apocynin, 0.5 μM and 5 μM PALP, or 0.5 μM and 5 μM LDC7559 for 30 min, and then stimulated with 50 nM PMA, 1 μM f-MLP, 5 μg/mL cholesterol crystals, 10 μg/mL LPS, 25 μM nigericin, or 25 μM calcymicin (A23187) for 3 h (except in Figures S1A, 6A and S7C, where cells were stimulated for 4 h). Cells were fixed and permeabilized in 2.5% paraformaldehyde (PFA) and 0.02% Triton X-100 in PBS for 30 min. For quantification of NETosis, cells were stained with 150 nM SYTOX Green and imaged in a KEYENCE Fluorescence Microscope (KEYENCE, ZB-X800E) at 10 x magnification. For immunolabeling, fixed cells were blocked with 2% BSA for 1 h, and then stained with anti-CitH3 and anti-MPO antibodies at a dilution of 1/200 in 1% BSA in PBS. Images were taken at 60 x magnification using an ImageXpress Micro Confocal high-content imaging system (Molecular Devices).
Semi-automated analysis of both phase and fluorescence images of SYTOX Green-stained neutrophils used a specialized MATLAB algorithm. Total cells were counted by scoring phase standard deviation and radial symmetry. NETosis was classified in cells by measuring the DNA area in the fluorescence image and comparing with a select internal training set for each experiment. Unstimulated cells and PMA-stimulated, […] cells served as negative controls. PMA-stimulated cells served as a positive control. NET-forming cells are presented as a percentage of total cells.

[4] = tested on: human bronchial epithelial cells (HBECs); test: Epithelial barrier tissue damage assay (FITC-dextran); assay type: cell-based; conditions: PMA-activated neutrophils on HBECs
Experimental: Human bronchial epithelial cells (HBECs) (4 × 10^4 in […] complete PneumaCult-Ex plus medium) were added to a HTS Transwell-96 permeable support plate (polyester membrane with a 0.4 μm pores) and immersed in receiver plates containing 150 μL of complete PneumaCult-Ex plus medium for 3 days. The medium on confluent monolayers was then replaced with RPMI medium containing neutrophils (4 × 10^4) in RPMI buffer that were previously treated with 5 μM NA-11, 100 μM apocynin, 5 μM NA-4, or DMSO vehicle and then activated with 100 nM PMA. The transwell plate was cultured in a new receiver plate containing 150 μL Hank’s balanced salt solution (HBSS) for 2 h. 10 μL of DMEM supplemented with 5% FBS and 2 mM L-glutamine were added to each well and the plate was incubated for additional 18 h. To measure the permeability of the epithelial barrier, FITC-dextran (200 μg/mL) and DNase-1 (22 Units/mL) were added to the apical side for 1 h. FITC-dextran in the receiver plate was measured (ex: 494 em: 521).

[5] = tested on: PMNs; test: ROS detection assay (ROS-Glo) in neutrophils; assay type: cell-based, human
Experimental: ROS were measured using the ROS-Glo bioluminescent assay (Promega) for the direct detection of H2O2. Briefly, neutrophils (2 × 10^4) were plated in white 96-well plates (Greiner) in high glucose DMEM medium. Cells were cultured with DMSO vehicle, 0.5 μM NA-11, 5 μM LDC7559, 100 μM apocynin, or 200 μM thionicotinamide for 30 min, and then stimulated with 50 nM PMA or treated with 10 μg/mL zymosan beads, pre-opsonized in 20% serum for 30 min. Luminescence, after the addition of H2O2 substrate solution of 20 min, and then ROS-Glo detection solution for 20 min, was recorded on a plate reader (Envision).

[6] = biological target: T2, GSDMD (Homo sapiens, UniProt P57764); test: TR-FRET liposome cargo release (GSDMD pore formation); assay type: biochemical; conditions: 10 μM
T2 sequence (P57764 1-484): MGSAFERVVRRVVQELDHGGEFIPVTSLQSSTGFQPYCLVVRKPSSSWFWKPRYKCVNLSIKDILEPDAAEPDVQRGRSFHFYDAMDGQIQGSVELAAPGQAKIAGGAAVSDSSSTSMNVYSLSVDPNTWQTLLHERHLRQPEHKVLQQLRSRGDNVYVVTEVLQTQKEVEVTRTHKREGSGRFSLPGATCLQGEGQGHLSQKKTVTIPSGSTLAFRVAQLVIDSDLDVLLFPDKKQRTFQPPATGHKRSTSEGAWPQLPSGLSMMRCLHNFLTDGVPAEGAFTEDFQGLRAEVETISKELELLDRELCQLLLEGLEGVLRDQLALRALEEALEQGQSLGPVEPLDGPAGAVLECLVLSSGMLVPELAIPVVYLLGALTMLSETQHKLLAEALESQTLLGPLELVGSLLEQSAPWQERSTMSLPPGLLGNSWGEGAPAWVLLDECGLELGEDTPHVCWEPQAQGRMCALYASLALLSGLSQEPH
Experimental: GSDMD-dependent liposome cargo release was conducted by Confluence Discovery Technologies with modifications to the procedure described previously ([Aglietti et al., 2016]). Briefly, liposomes with an encapsulated cargo of europium-chelate conjugated biotin were formed from a lipid mixture of DOPC:DOPE (1:1). 0.15 mg/mL of cargo-loaded liposomes were mixed with 0.3 μM of recombinant GSDMD and incubated with 10 μM LDC7559, 10 μM disulfiram or DMSO vehicle. 0.15 μM caspase-4 and 50 nM streptavidin-Alexa Fluor 647 were added and TR-FRET was read over 1 h using a PHERAstar FSX Microplate Reader (BMG Labtech) equipped with a TR-FRET module.

[7] = tested on: E. coli; test: Phagocytosis assay: E. coli C.F.U. recovered from PMNs; assay type: cell-based, human; conditions: neutrophils pretreated 30 min
Experimental: Neutrophils (1 × 10^6) were cultured in 6-well tissue in RPMI medium containing DMSO vehicle, 0.5 μM NA-11, 0.5 μM NA-4, 100 μM Apocynin or 100 μM thionicotinamide (TN) for 30 min. E. coli grown in LB broth overnight (2 mL) were opsonized with human serum (1 mL pooled from three donors) for 1 h at room temperature. Opsonized bacteria were washed with PBS, resuspended in LB broth to an OD600of 0.1 and then added to cultured neutrophils at an MOI of 1 for 30 min. Cells were washed with medium three times and then cultured with 300 μg/mL gentamicin for 2 h to kill any extracellular bacteria. Cells were then washed again, twice with medium and once with PBS. To release phagocytosed bacteria, neutrophils were lysed in 0.05% saponin in PBS. Lysates were passed through a 25’ gauge needed several times and the number of viable phagocytosed bacteria was determined by colony counting.

[8] = tested on: PMNs; test: NADPH/NADP+ detection assay in neutrophils; assay type: cell-based, human; conditions: pretreatment, PMA-activated neutrophils
Experimental: The ratio of NADPH/NADP^+ (or NADH/NAD^+) was calculated after measuring the individual concentrations of NADPH and NADP^+ (or NADH and NAD^+) with NADP/NADPH-Glo (or NAD/NADH-Glo) assays (Promega). […] Cells were lysed in plates by addition of 1% dodecyltrimethylammonium bromide (DTAB). To measure NADPH, half of the samples was heated at 60 °C for 30 min. The other half was treated with HCl before heating to 60°C, to measure NADP^+. All samples were neutralized before adding luciferase detection reagent, then incubated for 1 h with gentle shaking. Luminescence was recorded on a plate reader (Envision).

- protection of PFKL from thermal inactivation [1]: protected PFKL from thermal inactivation
Structure (SMILES): O=C(COP(=O)(O)O)[C@@H](O)[C@H](O)[C@H](O)COP(=O)(O)O [FBP, fructose 1,6-bisphosphate]

- activation of PFKL [2]: did not activate PFKL
Structure (SMILES): COc1ccccc1-c1cc2n(n1)Cc1ccc(N)cc1OC2 [NA-4]
- inhibition of PMA-induced NETosis [3]: no inhibitor activity
- protection of epithelial layer from neutrophil-induced oxidative damage [4]: did not
- ROS production during phagocytosis of opsonized zymosan ([5]; over 2 h): did not suppress ROS production

- liposome permeabilization by GSDMD pore-forming fragment [6]: prevented liposome permeabilization
Structure (SMILES): CCN(CC)C(=S)SSC(=S)N(CC)CC [disulfiram]

Structure (SMILES): COc1cc(C(C)=O)ccc1O [apocynin, reference compound]
- protection of epithelial layer from neutrophil-induced oxidative damage [4]: protected the epithelial layer
- killing of phagocytosed bacteria (bacterial colonies recovered) [7]: less efficient killers of phagocytosed bacteria
- PMA-induced ROS production ([5]; 50 nM PMA): prevented
- ratio of NADPH/NADP+ [8]: roughly twice that of untreated cells
